Results reported in patent publication US20260028336A1 (Arcus Biosciences, Inc., priority 2022, published 2026).

What was measured:
[1] = target: T1, Cbl-b (Homo sapiens, UniProt Q13191); assay: Cbl-b probe displacement HTRF binding assay; conditions: 0.4 nM biotinylated Cbl-b, 150 nM BODIPY probe
T1 construct: biotin (biotinylated)
Description: The affinity with which compounds of the present dislcosure bind to Cbl-b was assessed using probe displacement homologous time resolved fluorescence (HTRF) assays. […] The assays were performed in assay buffer consisting of 20 mM Hepes, 150 mM NaCl, 0.01% Triton X-100, 0.5 mM TCEP, 0.01% BSA. On the day of the assay, a 20 point, 1:2 master serial dilution of each compound was prepared in DMSO to span a final concentration range of […] to 0 nM. Two hundred nanoliters of diluted compound was added to each well of a 384-well plate. Fifteen microliters of biotinylated-Cbl-b resuspended in assay buffer were added to each well and the plate incubated for 60 minutes at room temperature prior to addition of 5 μL of BODIPY™ probe in assay buffer. […] After a further 15 minutes of incubation at room temperature, 5 μl of Streptavidin-Terbium cryptate reagent at 5-fold final concentration was added to each well of the 384-well plate. Binding of a probe to Cbl-b results in an increase of HTRF signal. […] Percentage maximum activity in each test well was calculated based on DMSO (maximum activity, 0% displacement) and no protein control wells (baseline activity, 100% displacement). Binding affinity was determined from a dose response curve fitted using a standard four parameter fit equation.

[2] = tested on: Jurkat cells; assay: IL-2 secretion assay in CD3/CD28-activated Jurkat cells (AlphaLISA); assay type: cell-based; conditions: Homo sapiens, CD3/CD28 T Cell Activator, 24 h, IL-2 AlphaLISA
Description: Certain compounds were also evaluated in an IL-2 secretion assay. On the day of the assay, a 16 point, 1:2 master serial dilution of each compound was prepared in Opti-MEM to span a final concentration range of 10 μM to 300 pM. Assays were set up in CORNING® tissue culture-treated 384-well microplates containing 60 nL of each dilution. […] 50,000 cells/well and added to the compound plates. After a short spin (1200 rpm for 1 min), the plates were incubated at 37° C. for 1 hour. The cells were activated by adding 15 μL of IMMUNOCULT™ Human CD3/CD28 T Cell Activator ([…] Technologies) diluted in Opti-MEM. […] The AiphaLISA signal was measured using an EnVision plate reader (PerkinElmer). EC50 values were determined by fitting the data to a standard 4-parameter logistic equation.

T1 sequence (Q13191 whole entry, species assumed): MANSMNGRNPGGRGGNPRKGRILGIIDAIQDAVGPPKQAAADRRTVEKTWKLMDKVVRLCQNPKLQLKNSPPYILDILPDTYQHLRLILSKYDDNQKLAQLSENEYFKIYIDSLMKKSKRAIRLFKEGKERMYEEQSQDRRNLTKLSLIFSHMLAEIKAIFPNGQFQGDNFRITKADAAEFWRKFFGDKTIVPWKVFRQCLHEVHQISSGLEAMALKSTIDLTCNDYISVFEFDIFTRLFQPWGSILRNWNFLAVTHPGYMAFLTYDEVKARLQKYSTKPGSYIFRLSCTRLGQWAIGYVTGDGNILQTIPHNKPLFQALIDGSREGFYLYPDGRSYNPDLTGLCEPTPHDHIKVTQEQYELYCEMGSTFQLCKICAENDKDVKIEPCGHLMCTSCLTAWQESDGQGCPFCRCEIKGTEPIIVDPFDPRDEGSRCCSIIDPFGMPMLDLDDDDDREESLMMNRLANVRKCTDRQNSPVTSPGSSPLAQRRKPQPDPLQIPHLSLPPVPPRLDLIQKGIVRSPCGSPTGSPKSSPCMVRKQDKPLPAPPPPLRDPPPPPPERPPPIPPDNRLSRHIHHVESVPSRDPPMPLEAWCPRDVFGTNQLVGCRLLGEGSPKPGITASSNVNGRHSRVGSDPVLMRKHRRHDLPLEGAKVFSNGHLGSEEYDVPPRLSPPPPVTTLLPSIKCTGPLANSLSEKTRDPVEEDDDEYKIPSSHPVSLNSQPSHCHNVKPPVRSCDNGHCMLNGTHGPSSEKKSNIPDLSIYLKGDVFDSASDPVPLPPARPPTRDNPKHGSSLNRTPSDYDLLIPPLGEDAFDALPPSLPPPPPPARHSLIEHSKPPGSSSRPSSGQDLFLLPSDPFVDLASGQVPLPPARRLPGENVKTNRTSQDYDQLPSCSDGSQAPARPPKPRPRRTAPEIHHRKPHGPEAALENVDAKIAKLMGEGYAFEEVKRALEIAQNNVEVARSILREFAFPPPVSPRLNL

| SMILES | IC50 [1] | EC50 [2] |
| --- | --- | --- |
| Cn1cnnc1[C@]1(c2cccc(-n3cc(C4CC4)c4nc[nH]c4c3=O)c2)C[C@@H](C)C1 (single isomer, unassigned) [Example 12, 7-cyclopropyl-5-{3-[(1s,3r)-3-methyl-1-(4-methyl-4H-1,2,4-triazol-3-yl)cyclobutyl]phenyl}-3H,4H,5H-imidazo[4,5-c]pyridin-4-one] | 100 to 1000 nM | 1000 to 5000 nM |
| Cn1cnnc1[C@]1(c2cccc(-n3cc(C4CC4)c4c(C#N)c[nH]c4c3=O)c2)C[C@H](C)C1 (single isomer, unassigned) [Example 14, 4-Cyclopropyl-7-oxo-6-{3-[(1r,3s)-3-methyl-1-(4-methyl-4H-1,2,4-triazol-3-yl)cyclobutyl]phenyl}-1H,6H,7H-pyrrolo[2,3-c]pyridine-3-carbonitrile] | < 100 nM | 100 to 1000 nM |
| C[C@H]1CCCN(Cc2cc3c(C4CC4)cn(-c4cccc([C@]5(c6nncn6C)C[C@@H](C)C5)c4)c(=O)c3[nH]2)C1 [Example 3, 4-cyclopropyl-6-[3-[3-methyl-1-(4-methyl-1,2,4-triazol-3-yl)cyclobutyl]phenyl]-2-[[(3S)-3-methylpiperidin-1-yl]methyl]-1H-pyrrolo[2,3-c]pyridin-7-one] | – | < 100 nM |
| Cc1cn(-c2cccc([C@]3(c4nncn4C)C[C@@H](C)C3)c2)c(=O)c2[nH]ccc12 [Example 29, 4-methyl-6-{3-[(1r,3s)-3-methyl-1-(4-methyl-4H-1,2,4-triazol-3-yl)cyclobutyl]phenyl}-1H,6H,7H-pyrrolo[2,3-c]pyridin-7-one] | 100 to 1000 nM | – |
| CN1CCC(c2cc3c(C4CC4)cn(-c4cccc([C@]5(c6nncn6C)C[C@@H](C)C5)c4)c(=O)c3[nH]2)CC1 [Example 33, 4-cyclopropyl-2-(1-methylpiperidin-4-yl)-6-{3-[(1r,3s)-3-methyl-1-(4-methyl-4H-1,2,4-triazol-3-yl)cyclobutyl]phenyl}-1H,6H,7H-pyrrolo[2,3-c]pyridin-7-one] | 100 to 1000 nM | – |
| CC1CC(c2cccc(-n3cc(C4CC4)c4cc(CN5CCCC6CC65)[nH]c4c3=O)c2)(c2nncn2C)C1 (centres unmarked) [Example 44, 2-({2-azabicyclo[4.1.0]heptan-2-yl}methyl)-4-cyclopropyl-6-{3-[3-methyl-1-(4-methyl-4H-1,2,4-triazol-3-yl)cyclobutyl]phenyl}-1H,6H,7H-pyrrolo[2,3-c]pyridin-7-one] | < 100 nM | – |
| CC1CC(c2cccc(-n3cc(C4CC4)c4cc(CN5CCC[C@H](C(F)(F)F)C5)[nH]c4c3=O)c2)(c2nncn2C)C1 (some centres unmarked) [Example 48, 4-cyclopropyl-6-{3-[3-methyl-1-(4-methyl-4H-1,2,4-triazol-3-yl)cyclobutyl]phenyl}-2-{[(3S′)-3-(trifluoromethyl)piperidin-1-yl]methyl}-1H,6H,7H-pyrrolo[2,3-c]pyridin-7-one] | < 100 nM | – |
| CC1CC(c2cccc(-n3cc(C4CC4)c4cc(CN5CC6CC(C5)O6)[nH]c4c3=O)c2)(c2nncn2C)C1 (centres unmarked) [Example 53, 4-cyclopropyl-6-{3-[3-methyl-1-(4-methyl-4H-1,2,4-triazol-3-yl)cyclobutyl]phenyl}-2-({6-oxa-3-azabicyclo[3.1.1]heptan-3-yl}methyl)-1H,6H,7H-pyrrolo[2,3-c]pyridin-7-one] | < 100 nM | – |
| Cn1cnnc1C1(c2cccc(-n3cc(C4CC4)c4cc(CNC5CCC(F)(F)C5)[nH]c4c3=O)c2)CC(F)(F)C1 (centres unmarked) [Example 80, 4-cyclopropyl-6-{3-[3,3-difluoro-1-(4-methyl-4H-1,2,4-triazol-3-yl)cyclobutyl]phenyl}-2-{[(3,3-difluorocyclopentyl)amino]methyl}-1H,6H,7H-pyrrolo[2,3-c]pyridin-7-one] | < 100 nM | – |
| Cn1cnnc1C1(c2cccc(-n3cc(C4CC4)c4cc(CNC5(C)CC(F)(F)C5)[nH]c4c3=O)c2)CC(F)(F)C1 [Example 81, 4-cyclopropyl-6-{3-[3,3-difluoro-1-(4-methyl-4H-1,2,4-triazol-3-yl)cyclobutyl]phenyl}-2-{[(3,3-difluoro-1-methylcyclobutyl)amino]methyl}-1H,6H,7H-pyrrolo[2,3-c]pyridin-7-one] | < 100 nM | – |

Continued, values first:

| IC50 [1] | EC50 [2] | SMILES |
| --- | --- | --- |
| < 100 nM | < 100 nM | CC1CC(c2cccc(-n3cnc4cc(CN5CCC[C@H](C)C5)[nH]c4c3=O)c2)(c2nncn2C)C1 (mixture of isomers) [Example 119, 6—{[(3S)-3-Methylpiperidin-1-yl]methyl}-3-{3-[(1R,3S)-3-methyl-1-(4-methyl-4H-1,2,4-triazol-3-yl)cyclobutyl]phenyl}-3H,4H,5H-pyrrolo[3,2-d]pyrimidin-4-one] |
| < 100 nM | > 5000 nM | CC1CC(c2cccc(-n3cc(C4CC4)c4c(-c5cnn(C)c5)c[nH]c4c3=O)c2)(c2nncn2C)C1 (mixture of isomers) [Example 131, 4-Cyclopropyl-3-(1-methyl-1H-pyrazol-4-yl)-6-{3-[(1R,3S)-3-methyl-1-(4-methyl-4H-1,2,4-triazol-3-yl)cyclobutyl]phenyl}-1H,6H,7H-pyrrolo[2,3-c]pyridin-7-one] |
| < 100 nM | < 100 nM | CC1CC(c2cccc(-n3cc(C4CC4)c4c(C#N)c(CN5CCC[C@H](C)C5)[nH]c4c3=O)c2)(c2nncn2C)C1 (mixture of isomers) [Example 134, 4-Cyclopropyl-2-{[(3S)-3-methylpiperidin-1-yl]methyl}-7-oxo-6-{3-[(1R,3S)-3-methyl-1-(4-methyl-4H-1,2,4-triazol-3-yl)cyclobutyl]phenyl}-1H,6H,7H-pyrrolo[2,3-c]pyridine-3-carbonitrile] |
| < 100 nM | < 100 nM | CC1CC(c2cccc(-n3cc(C4CC4)c4c(S(C)(=O)=O)c(CN5CCC[C@H](C)C5)[nH]c4c3=O)c2)(c2nncn2C)C1 (mixture of isomers) [Example 135, 4-Cyclopropyl-3-methanesulfonyl-2-{[(3S)-3-methylpiperidin-1-yl]methyl}-6-{3-[(1R,3S)-3-methyl-1-(4-methyl-4H-1,2,4-triazol-3-yl)cyclobutyl]phenyl}-1H,6H,7H-pyrrolo[2,3-c]pyridin-7-one] |
| 1000 to 5000 nM | > 5000 nM | CC1CC(c2cccc(-n3cc(C(=O)O)c4cn[nH]c4c3=O)c2)(c2nncn2C)C1 (mixture of isomers) [Example 141, 7-Oxo-6-{3-[(1R,3S)-3-methyl-1-(4-methyl-4H-1,2,4-triazol-3-yl)cyclobutyl]phenyl}-1H,6H,7H-pyrazolo[3,4-c]pyridine-4-carboxylic acid] |
| < 100 nM | 100 to 1000 nM | CC1CC(c2cccc(-n3cnc4c(C(F)(F)F)c(CN5CCC[C@H](C)C5)[nH]c4c3=O)c2)(c2nncn2C)C1 (mixture of isomers) [Example 143, 6—{[(3S)-3-Methylpiperidin-1-yl]methyl}-3-{3-[(1R,3S)-3-methyl-1-(4-methyl-4H-1,2,4-triazol-3-yl)cyclobutyl]phenyl}-7-(trifluoromethyl)-3H,4H,5H-pyrrolo[3,2-d]pyrimidin-4-one] |
| – | 1000 to 5000 nM | C[C@H]1CCCN(Cc2cc3c(C4CC4)cn(-c4cccc([C@]5(c6nncn6C)C[C@H](O)C5)c4)c(=O)c3[nH]2)C1 [Example 99, trans-4-cyclopropyl-6-[3-[3-hydroxy-1-(4-methyl-1,2,4-triazol-3-yl)cyclobutyl]phenyl]-2-[[(3S)-3-methylpiperidin-1-yl]methyl]-1H-pyrrolo[2,3-c]pyridin-7-one] |
| 1000 to 5000 nM | – | CC1CC(c2cccc(-n3nc(C4CC4)c4cc[nH]c4c3=O)c2)(c2nncn2C)C1 (centres unmarked) [Example 116, 4-cyclopropyl-6-{3-[3-methyl-1-(4-methyl-4H-1,2,4-triazol-3-yl)cyclobutyl]phenyl}-1H,6H,7H-pyrrolo[2,3-d]pyridazin-7-one] |
| < 100 nM | – | Cn1cnnc1[C@]1(c2cccc(-n3cc(C(F)(F)F)c4c(S(C)(=O)=O)c[nH]c4c3=O)c2)C[C@H](C)C1 [Example 138, 3-Methanesulfonyl-6-{3-[(1R,3S)-3-methyl-1-(4-methyl-4H-1,2,4-triazol-3-yl)cyclobutyl]phenyl}-4-(trifluoromethyl)-1H,6H,7H-pyrrolo[2,3-c]pyridin-7-one] |
| < 100 nM | – | C[C@H]1CCCN(Cc2cc3ncn(-c4cccc([C@]5(c6nncn6C(F)F)C[C@H](OC(F)F)C5)c4)c(=O)c3[nH]2)C1 [Example 153, 2—{[(S)-3-methyl-1-piperidyl]methyl}-6-(m-{(1r,3S)-3-difluoromethoxy-1-[4-(difluoromethyl)-4H-1,2,4-triazol-3-yl]cyclobutyl}phenyl)-1,6-dihydro-1,4,6-triaza-7-indenone] |
| < 100 nM | – | CC(c1ccnc(-n2cc(C3CC3)c3cc(CN4CCC[C@H](C)C4)[nH]c3c2=O)c1)c1nncn1C (stereo partly drawn) [Example 157, 2—{[(S)-3-methyl-1-piperidyl]methyl}-4-cyclopropyl-6-{4-[1-(4-methyl-4H-1,2,4-triazol-3-yl)ethyl]-2-pyridyl}-1,6-dihydro-1,6-diaza-7-indenone] |
